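Grown in 96-well plates, cells were treated for 48 hours with each compound at five concentrations. Insufficient inhibition: endpoint recorded as highest concentration tested. GI50 = concentration required for 50% inhibition of growth. TGI is the concentration that stops growth completely.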
Columns and labels:
Experiment in all cases: NCI anticancer screen, dose series, 48 h
[1] = system: 786-0 renal
[2] = system: A498 renal
[3] = system: A549 NSCLC
[4] = system: ACHN renal
[5] = system: BT-549 breast
[6] = system: CAKI-1 renal
[7] = system: CCRF-CEM leukemia
[8] = system: COLO 205 colon
[9] = system: DU-145 prostate
[10] = system: EKVX NSCLC
[11] = system: HCC-2998 colon
[12] = system: HCT-116 colon
[13] = system: HCT-15 colon
[14] = system: HL-60(TB) leukemia
[15] = system: HOP-62 NSCLC
[16] = system: HOP-92 NSCLC
[17] = system: HS 578T breast
[18] = system: IGROV1 ovarian
[19] = system: K-562 leukemia
[20] = system: KM12 colon
[21] = system: LOX IMVI melanoma
[22] = system: M14 melanoma
[23] = system: MALME-3M melanoma
[24] = system: MCF7 breast
[25] = system: MDA-MB-231 breast
[26] = system: MDA-MB-435
[27] = system: MDA-MB-468 breast
[28] = system: MOLT-4 leukemia
[29] = system: NCI-H226 lung
[30] = system: NCI-H23 lung
[31] = system: NCI-H522 lung
[32] = system: NCI/ADR-RES ovarian
[33] = system: OVCAR-3 ovarian
[34] = system: OVCAR-4 ovarian
[35] = system: OVCAR-5 ovarian
[36] = system: OVCAR-8 ovarian
[37] = system: PC-3 prostate
[38] = system: RPMI-8226 leukemia
[39] = system: RXF 393 renal
[40] = system: SF-268 CNS
[41] = system: SF-295 CNS
[42] = system: SF-539 CNS
[43] = system: SK-MEL-2 melanoma
[44] = system: SK-MEL-28 melanoma
[45] = system: SK-MEL-5 melanoma
[46] = system: SK-OV-3 ovarian
[47] = system: SN12C renal
[48] = system: SNB-19 CNS
[49] = system: SNB-75 CNS
[50] = system: SW-620 colon
[51] = system: TK-10 renal
[52] = system: U251 CNS
[53] = system: UACC-257 melanoma
[54] = system: UACC-62 melanoma
[55] = system: UO-31 renal
[56] = system: HT29 colon
[57] = system: SR leukemia
[58] = system: T-47D breast

Compound: O=C(NN1C(=O)/C(=C/C=C/c2ccc([N+](=O)[O-])o2)SC1=S)c1ccc(O)cc1
- GI50 [1]: 1.78 µM
- TGI [1]: 3.27 µM
- GI50 [2]: 18.8 µM
- TGI [2]: 32.8 µM
- GI50 [3]: 3.78 µM
- TGI [3]: 16.3 µM
- GI50 [4]: 1.77 µM
- TGI [4]: 3.22 µM
- GI50 [5]: 1.36 µM
- TGI [5]: 2.79 µM
- GI50 [6]: 1.5 µM
- TGI [6]: 2.9 µM
- GI50 [7]: 0.195 µM
- TGI [7]: 1.81 µM
- GI50 [8]: 1.73 µM
- TGI [8]: 3.35 µM
- GI50 [9]: 2.35 µM
- TGI [9]: 5.79 µM
- GI50 [10]: 1.57 µM
- TGI [10]: 3.19 µM
- GI50 [11]: 1.78 µM
- TGI [11]: 3.32 µM
- GI50 [12]: 0.382 µM
- TGI [12]: 1.57 µM
- GI50 [13]: 0.212 µM
- TGI [13]: 0.499 µM
- GI50 [14]: > 100 µM
- TGI [14]: > 100 µM
- GI50 [15]: 1.89 µM
- TGI [15]: 3.6 µM
- GI50 [16]: 1.63 µM
- TGI [16]: 3.69 µM
- GI50 [17]: 2.52 µM
- TGI [17]: 8.64 µM
- GI50 [18]: 1.46 µM
- TGI [18]: 2.82 µM
- GI50 [19]: > 100 µM
- TGI [19]: > 100 µM
- GI50 [20]: 1.93 µM
- TGI [20]: 4.29 µM
- GI50 [21]: 0.185 µM
- TGI [21]: 0.358 µM
- GI50 [22]: 0.316 µM
- TGI [22]: 1.35 µM
- GI50 [23]: 0.246 µM
- TGI [23]: 0.558 µM
- GI50 [24]: 1.41 µM
- TGI [24]: 3.19 µM
- GI50 [25]: 0.399 µM
- TGI [25]: 1.42 µM
- GI50 [26]: 1.13 µM
- TGI [26]: 2.51 µM
- GI50 [27]: 1.72 µM
- TGI [27]: 3.58 µM
- GI50 [28]: > 100 µM
- TGI [28]: > 100 µM
- GI50 [29]: 0.69 µM
- TGI [29]: 2.28 µM
- GI50 [30]: 1.27 µM
- TGI [30]: 2.69 µM
- GI50 [31]: 0.217 µM
- TGI [31]: 0.498 µM
- GI50 [32]: 2.2 µM
- TGI [32]: 5.21 µM
- GI50 [33]: 1.68 µM
- TGI [33]: 3.14 µM
- GI50 [34]: 1.86 µM
- TGI [34]: 4.22 µM
- GI50 [35]: 1.8 µM
- TGI [35]: 3.53 µM
- GI50 [36]: 1.3 µM
- TGI [36]: 3.4 µM
- GI50 [37]: 2.37 µM
- TGI [37]: 7.23 µM
- GI50 [38]: 0.713 µM
- TGI [38]: 5.34 µM
- GI50 [39]: 1.56 µM
- TGI [39]: 2.99 µM
- GI50 [40]: 1.97 µM
- TGI [40]: 4.34 µM
- GI50 [41]: 2.04 µM
- TGI [41]: 4.59 µM
- GI50 [42]: 1.66 µM
- TGI [42]: 3.12 µM
- GI50 [43]: 1.42 µM
- TGI [43]: 2.99 µM
- GI50 [44]: 1.67 µM
- TGI [44]: 3.1 µM
- GI50 [45]: 1.12 µM
- TGI [45]: 2.34 µM
- GI50 [46]: 2.49 µM
- TGI [46]: 5.96 µM
- GI50 [47]: 0.344 µM
- TGI [47]: 1.63 µM
- GI50 [48]: 1.92 µM
- TGI [48]: 3.9 µM
- GI50 [49]: 1.31 µM
- TGI [49]: 4.38 µM
- GI50 [50]: 0.307 µM
- TGI [50]: 0.996 µM
- GI50 [51]: 1.83 µM
- TGI [51]: 3.51 µM
- GI50 [52]: 1.75 µM
- TGI [52]: 3.52 µM
- GI50 [53]: 1.69 µM
- TGI [53]: 3.5 µM
- GI50 [54]: 1.05 µM
- TGI [54]: 2.26 µM
- GI50 [55]: 1.51 µM
- TGI [55]: 2.91 µM

Compound: O=C(/C=C/c1ccccc1Cl)c1nc2ccccc2n1Cc1ccc(F)cc1
- GI50 [2]: 61.8 µM
- TGI [2]: > 100 µM
- GI50 [3]: 8.06 µM
- TGI [3]: > 100 µM
- GI50 [4]: 5.23 µM
- TGI [4]: > 100 µM
- GI50 [6]: 3.47 µM
- TGI [6]: > 100 µM
- GI50 [7]: 2.45 µM
- TGI [7]: > 100 µM
- GI50 [8]: 4.01 µM
- TGI [8]: > 100 µM
- GI50 [9]: 4.61 µM
- TGI [9]: > 100 µM
- GI50 [10]: 6.44 µM
- TGI [10]: > 100 µM
- GI50 [11]: 3.16 µM
- TGI [11]: 55.8 µM
- GI50 [14]: 2.51 µM
- TGI [14]: > 100 µM
- GI50 [15]: 5.03 µM
- TGI [15]: 41.9 µM
- GI50 [16]: 16.4 µM
- TGI [16]: 62.8 µM
- GI50 [17]: 4.51 µM
- TGI [17]: 58.6 µM
- GI50 [56]: 3.64 µM
- TGI [56]: > 100 µM
- GI50 [18]: 3.33 µM
- TGI [18]: > 100 µM
- GI50 [19]: 3.3 µM
- TGI [19]: > 100 µM
- GI50 [20]: 3.34 µM
- TGI [20]: > 100 µM
- GI50 [21]: 1.65 µM
- TGI [21]: 3.23 µM
- GI50 [23]: 8.22 µM
- TGI [23]: 70.2 µM
- GI50 [25]: 2.59 µM
- TGI [25]: 6.68 µM
- GI50 [26]: 2.37 µM
- TGI [26]: 5.92 µM
- GI50 [28]: 3.04 µM
- TGI [28]: > 100 µM
- GI50 [29]: 25.4 µM
- TGI [29]: > 100 µM
- GI50 [30]: 4.25 µM
- TGI [30]: > 100 µM
- GI50 [31]: 4.49 µM
- TGI [31]: > 100 µM
- GI50 [34]: 23 µM
- TGI [34]: > 100 µM
- GI50 [35]: 3.76 µM
- TGI [35]: 73.1 µM
- GI50 [36]: 3.25 µM
- TGI [36]: > 100 µM
- GI50 [37]: 4.45 µM
- TGI [37]: > 100 µM
- GI50 [38]: 2.97 µM
- TGI [38]: > 100 µM
- GI50 [39]: 2.06 µM
- TGI [39]: 5.35 µM
- GI50 [40]: 8.56 µM
- TGI [40]: > 100 µM
- GI50 [41]: 5.01 µM
- TGI [41]: 25.1 µM
- GI50 [42]: 2.33 µM
- TGI [42]: 5.67 µM
- GI50 [43]: 13.4 µM
- TGI [43]: > 100 µM
- GI50 [44]: 2.75 µM
- TGI [44]: 7.72 µM
- GI50 [45]: 5.23 µM
- TGI [45]: > 100 µM
- GI50 [46]: 32.5 µM
- TGI [46]: > 100 µM
- GI50 [47]: 20.1 µM
- TGI [47]: > 100 µM
- GI50 [48]: 3.99 µM
- TGI [48]: 70 µM
- GI50 [49]: 3.3 µM
- TGI [49]: > 100 µM
- GI50 [57]: 2.87 µM
- TGI [57]: > 100 µM
- GI50 [58]: 3.44 µM
- TGI [58]: > 100 µM
- GI50 [51]: 6.22 µM
- TGI [51]: > 100 µM
- GI50 [53]: 8.88 µM
- TGI [53]: > 100 µM
- GI50 [54]: 3.42 µM
- TGI [54]: 17.9 µM
- GI50 [55]: 2.58 µM
- TGI [55]: 11.2 µM

Source: PubChem BioAssay (NCI)
